Results on six molecules are retold here after ChEMBL document CHEMBL1201862, “PubChem BioAssay data set” (2004).

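Briefly, cells in 96-well plates were exposed to five compound concentrations for 48 h, and endpoints were estimated by linear interpolation. The concentration for 50% growth inhibition is given as GI50.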 Active and inactive are the calls of the source. No stated cut-off is given here; in the data, active = GI50 up to about 1.1 µM and inactive = higher. Some results are limits rather than exact numbers.

Some test systems named below: MDA-MB-231; OVCAR-3; COLO 205; Malme-3M; 786-0; CAKI-1; SK-MEL-2; A549; UACC-62; MCF7; SNB-75; RPMI-8226; HOP-92; KM12; A498; Hs-578T; SF-295; HCT-15; SR; LOX IMVI.
Common to all, as to test: inhibition of tumour cell growth, NCI panel, 48 h

As for `CCOC(=O)c1c2c(n(C)c1-c1ccccc1)C(=O)C(C)=CC2=O`, the GI50 was 2.08 µM (inactive) with MDA-MB-231; 2.86 µM (inactive) in the test with OVCAR-3; 1.57 µM (inactive) with COLO 205; 9.04 µM (inactive) in the test with Malme-3M; 15.2 µM (inactive) in the test on 786-0; 13.5 µM (inactive) in the test with CAKI-1. Moreover, the GI50 in the test on SK-MEL-2 was 13.6 µM (inactive); in the test on A549 it was 12.2 µM (inactive); in the test on UACC-62, 10.9 µM (inactive); in the test on MCF7 it was 2.37 µM (inactive); with SNB-75, 14.9 µM (inactive); in the test with RPMI-8226, 1.9 µM (inactive). Further, the GI50 with HOP-92 is 2.07 µM (inactive); in the test on KM12 it was 6.04 µM (inactive); in the test on A498, 18.2 µM (inactive); in the test with Hs-578T it was 18.4 µM (inactive); with SF-295, 19 µM (inactive); in the test on HCT-15, 3.36 µM. In addition, the GI50 with SR was 1.91 µM (inactive); in the test on LOX IMVI, 3.48 µM (inactive).

As for `CCOC(=O)C1C(O)CC2c3ccccc3-c3ccccc3C21` (stereo not given), the GI50 is 25.9 µM (inactive) in the test on MDA-MB-231; > 100 µM (inactive) in the test on OVCAR-3; > 100 µM (inactive) in the test with COLO 205; > 100 µM (inactive) with Malme-3M; 30.4 µM (inactive) with 786-0; > 100 µM (inactive) with CAKI-1. The GI50 is > 100 µM (inactive) in the test on SK-MEL-2; 44.9 µM (inactive) in the test with A549; 44.4 µM (inactive) with UACC-62; 49.5 µM (inactive) in the test with MCF7; 27.1 µM (inactive) with SNB-75; > 100 µM (inactive) in the test on RPMI-8226. Also, the GI50 in the test with HOP-92 is 20.1 µM (inactive); in the test with KM12 it was 36.1 µM (inactive); with A498, 20.2 µM (inactive); in the test on Hs-578T, 21.3 µM (inactive); in the test with SF-295 it was 43.7 µM (inactive); in the test with HCT-15, over 100 µM. The GI50 with SR and in the test on LOX IMVI was > 100 µM (inactive) each time.

For the molecule `CC(=O)Nc1ccc2c3c(cc(O)c2c1)N(C(=O)CCCCCCC(=O)Nc1ccc2c4c(cc(O)c2c1)N(C(=O)OC(C)(C)C)CC4CCl)CC3CCl` (stereo not given), the GI50 in the test with MDA-MB-231 was 0.319 µM (active); with OVCAR-3, 0.045 µM (active); in the test with COLO 205 it was 0.103 µM (active); with Malme-3M, 0.083 µM (active); in the test on 786-0, 0.0757 µM (active); in the test with CAKI-1 it was 1.02 µM (active). Also, the GI50 with SK-MEL-2 is 0.0423 µM (active); in the test on A549 it was 0.195 µM (active); with UACC-62, 0.0695 µM (active); in the test with MCF7 it was < 0.01 µM (active); with SNB-75 it was 0.0776 µM (active); with RPMI-8226 it was 0.0877 µM (active). The GI50 in the test with HOP-92 was 0.158 µM (active); with KM12, 0.169 µM (active); with A498, 0.0244 µM (active); in the test on Hs-578T it was 0.264 µM (active); in the test with SF-295 it was 0.0776 µM (active); in the test with HCT-15, 2.64 µM. For the same molecule, the GI50 is < 0.01 µM (active) in the test on SR and 0.0391 µM (active) with LOX IMVI.

Turning to `CC(=O)O[C@H]1CC[C@@]2(C)C(=CC[C@H]3[C@@H]4CC[C@H](c5cc(C(F)(F)F)n(C(C)=O)n5)[C@@]4(C)CC[C@@H]32)C1`, the GI50 was 4.98 µM (inactive) in the test with MDA-MB-231; 5.77 µM (inactive) with OVCAR-3; 3.62 µM (inactive) in the test with COLO 205; > 35 µM (inactive) with Malme-3M; 5.38 µM (inactive) in the test with 786-0; 12 µM (inactive) in the test on CAKI-1. Moreover, the GI50 is 6.93 µM (inactive) in the test on SK-MEL-2; 6.11 µM (inactive) in the test on A549; 12 µM (inactive) in the test on UACC-62; 5.87 µM (inactive) in the test with MCF7; 8.22 µM (inactive) in the test with SNB-75; 2.8 µM (inactive) with RPMI-8226. In addition, the GI50 is 1.22 µM (inactive) in the test on HOP-92; 8.41 µM (inactive) with KM12; 10.6 µM (inactive) in the test with A498; 26.8 µM (inactive) in the test on Hs-578T; 4.85 µM (inactive) in the test on SF-295; 5.64 µM in the test on HCT-15. Besides, the GI50 in the test on SR was 3.98 µM (inactive); in the test on LOX IMVI, 7.4 µM (inactive).

Turning to `Cc1nnc2n1-c1ccccc1N(Cc1ccccc1)CC2`, the GI50 with MDA-MB-231 is > 100 µM (inactive); with OVCAR-3 it was 39.6 µM (inactive); in the test with COLO 205, 38.1 µM (inactive); in the test on Malme-3M, 85.1 µM (inactive); in the test on 786-0, 87.7 µM (inactive); with CAKI-1, 38 µM (inactive). For the same molecule, the GI50 with SK-MEL-2 was 80.7 µM (inactive); with A549, 75.7 µM (inactive); with UACC-62, 39.6 µM (inactive); with MCF7, 37.4 µM (inactive); with SNB-75, 52.6 µM (inactive); in the test with RPMI-8226, 11.4 µM (inactive). The GI50 in the test with HOP-92 was 9.55 µM (inactive); in the test with KM12, 81.1 µM (inactive); in the test with A498, 93.8 µM (inactive); in the test on Hs-578T it was 58.9 µM (inactive); in the test on SF-295 it was 75 µM (inactive); in the test with HCT-15, 45.7 µM. Also, the results for the GI50 in the test on SR and in the test with LOX IMVI were 30.4 µM (inactive) and 55.8 µM (inactive), respectively.

As for `CN(CCNC(=O)c1n[nH]c2c1ccc1ccccc12)CCNC(=O)c1n[nH]c2c1ccc1ccccc12`, the GI50 with MDA-MB-231 is 1.94 µM (inactive); with OVCAR-3 it was 2.05 µM (inactive); in the test with COLO 205 it was 1.39 µM (inactive); in the test on Malme-3M it was 1.9 µM (inactive); with 786-0, 1.75 µM (inactive); in the test on CAKI-1 it was 8.73 µM (inactive). Besides, the GI50 in the test with SK-MEL-2 is 8.2 µM (inactive); with A549, 2.07 µM (inactive); in the test with UACC-62 it was 1.92 µM (inactive); in the test on MCF7, 1.87 µM (inactive); in the test on SNB-75 it was 1.85 µM (inactive); in the test on RPMI-8226, 2.18 µM (inactive). The GI50 with HOP-92 was 3.29 µM (inactive); in the test on KM12, 2.14 µM (inactive); in the test with A498, 7.28 µM (inactive); in the test on Hs-578T, 1.96 µM (inactive); in the test on SF-295, 1.81 µM (inactive); with HCT-15, 13.7 µM. Besides, the GI50 in the test with SR and in the test with LOX IMVI was 1.78 µM (inactive) throughout.
